pIC50, pKd: −log10 of the molar value. Calls of active or inactive are those of the source.
Tests used:
[1] = Binding affinity to GST-tagged Calcineurin (unknown origin) incubated for 1 hr by fluorescence polarization assay; set-up: species or system Homo sapiens
[2] = (§1) Binding affinity to GST-tagged Calcineurin (unknown origin) assessed as reduction in binding of peptide-14 incubated for 1 hr by fluorescence polarization assay; set-up: species or system Homo sapiens
Homo sapiens = species: Homo sapiens; assay: as §1
[3] = Stability in 25% human serum assessed as compound degradation at 5 uM at 37 degC incubated for 24 hrs by HPLC analysis; format: ADME, cell-free; settings: 25% human serum, read-out: Drug degradation
[4] = Solubility in PBS containing 5% DMSO at pH 7.4 incubated for 1 hr; format: physicochemical
[5] = Drug uptake in human HeLa cells at 5 uM incubated for 2 hrs using naphthofluorescein-labelled compound by live-cell confocal microscopic analysis; format: ADME, cell-based
HeLa = assay: Toxicity in human HeLa cells assessed as reduction in cell viability up to 25 uM incubated for 72 hrs by MTT assay; format: cell-based
NCI-H441 = assay: Toxicity in human NCI-H441 cells assessed as reduction in cell viability up to 25 uM incubated for 72 hrs by MTT assay; format: cell-based; settings: nci-h441, 72 h
Macrophage [6] = assay: Inhibition of calcineurin-NFATc3 interaction in mouse lung macrophages assessed as reduction in LPS-induced TNFalpha production at 0.1 to 10 uM pre-incubated 4 hrs before LPS stimulation for 8 hrs by ELISA; format: tissue-based; settings: dose microM 0.1-10, time 12.0 hrs
Macrophage [7] = assay: Inhibition of calcineurin-NFATc3 interaction in mouse lung macrophages assessed as reduction in LPS-induced IL6 production at 0.1 to 10 uM pre-incubated 4 hrs before LPS stimulation for 8 hrs by ELISA; format: tissue-based; settings: dose microM 0.1-10, time 12.0 hrs
[8] = Tmax in BALF of C57BL/6 mouse at 5 mg/kg using TMR-labeled compound instilled into both nostrils by flow cytometry; format: ADME, organism-based, Bronchoalveolar lavage; settings: inhaled or intranasal
[9] = Drug localization in total leukocytes of C57BL/6 mouse assessed as TMR-positive total leukocytes at 5 mg/kg using TMR-labeled compound instilled into both nostrils measured after 4 hrs by flow cytometry; format: ADME, organism-based, Leucocyte; settings: in vivo, inhaled_or_intranasal
[10] = Drug localization in total leukocytes of C57BL/6 mouse assessed as TMR-positive total leukocytes at 5 mg/kg using TMR-labeled compound instilled into both nostrils measured after 24 hrs by flow cytometry; format: ADME, organism-based, Leucocyte; settings: in vivo, inhaled_or_intranasal
[11] = Drug localization in plasma of C57BL/6 mouse at 5 mg/kg using TMR-labeled compound instilled into both nostrils measured after 24 hrs by flow cytometry; format: ADME, organism-based; settings: in vivo, inhaled_or_intranasal
[12] = Toxicity in of C57BL/6 mouse assessed as effect on lactate dehydrogenase level in total lung cells at 5 mg/kg using TMR-labeled compound instilled into both nostrils measured after 24 hrs by Cyto-tox 96 assay; format: organism-based; settings: in vivo, inhaled_or_intranasal
[13] = Toxicity in of C57BL/6 mouse assessed as induction of neutrophil infiltration at 5 mg/kg using TMR-labeled compound instilled into both nostrils measured after 24 hrs by Hema-3.0 staining based assay; format: organism-based; settings: in vivo, inhaled_or_intranasal
Mus musculus [14] = assay: Anti-inflammatory activity in BALB/c mouse model of LPS-induced ALI assessed as reduction in LPS-induced TNFalpha in BALF at 5 mg/kg dosed via intranasal insuffIation pre-treated 2 hrs before LPS stimulation for 16 hrs; format: functional, organism-based; settings: dose mg/kg 5-10, time 18.0 hrs
Mus musculus [15] = assay: Anti-inflammatory activity in BALB/c mouse model of LPS-induced ALI assessed as reduction in LPS-induced IL6 in BALF at 5 mg/kg dosed via intranasal insuffIation pre-treated 2 hrs before LPS stimulation for 16 hrs; format: functional, organism-based; settings: dose mg/kg 5-10, time 18.0 hrs
Mus musculus [16] = assay: Anti-inflammatory activity in BALB/c mouse model of LPS-induced ALI assessed as reduction in LPS-induced extravasated BALF protein in BALF at 5 mg/kg dosed via intranasal insuffIation pre-treated 2 hrs before LPS stimulation for 16 hrs; format: functional, organism-based; settings: dose mg/kg 5-10, time 18.0 hrs
Mus musculus [17] = assay: Anti-inflammatory activity in BALB/c mouse model of LPS-induced ALI assessed as reduction in LPS-induced TNFalpha in plasma at 5 mg/kg dosed via intranasal insuffIation pre-treated 2 hrs before LPS stimulation for 16 hrs; format: functional, organism-based; settings: dose mg/kg 5-10, time 18.0 hrs
Mus musculus [18] = assay: Anti-inflammatory activity in BALB/c mouse model of LPS-induced ALI assessed as reduction in LPS-induced IL6 in plasma at 5 mg/kg dosed via intranasal insuffIation pre-treated 2 hrs before LPS stimulation for 16 hrs; format: functional, organism-based; settings: dose mg/kg 5-10, time 18.0 hrs
Mus musculus [19] = assay: Anti-inflammatory activity in BALB/c mouse model of LPS-induced ALI assessed as reduction in lung wet-to-dry ratios at 5 mg/kg dosed via intranasal insuffIation pre-treated 2 hrs before LPS stimulation for 16 hrs; format: functional, organism-based; settings: dose mg/kg 5-10, time 18.0 hrs
Mus musculus [20] = assay: Anti-inflammatory activity in BALB/c mouse model of LPS-induced ALI assessed as reduction in number of neutrophils BALF at 5 mg/kg dosed via intranasal insuffIation pre-treated 2 hrs before LPS stimulation for 16 hrs; format: functional, organism-based; settings: dose mg/kg 5-10, time 18.0 hrs
Mus musculus [21] = assay: Anti-inflammatory activity in BALB/c mouse model of LPS-induced ALI assessed as reduction in LPS-induced TNFalpha in BALF at 10 mg/kg dosed via intranasal insuffIation pre-treated 2 hrs before LPS stimulation for 16 hrs; format: functional, organism-based; settings: time 18.0 hrs
Mus musculus [22] = assay: Anti-inflammatory activity in BALB/c mouse model of LPS-induced ALI assessed as reduction in LPS-induced IL6 in BALF at 10 mg/kg dosed via intranasal insuffIation pre-treated 2 hrs before LPS stimulation for 16 hrs; format: functional, organism-based; settings: time 18.0 hrs
Mus musculus [23] = assay: Anti-inflammatory activity in BALB/c mouse model of LPS-induced ALI assessed as reduction in LPS-induced extravasated BALF protein in BALF at 10 mg/kg dosed via intranasal insuffIation pre-treated 2 hrs before LPS stimulation for 16 hrs; format: functional, organism-based; settings: time 18.0 hrs
Mus musculus [24] = assay: Anti-inflammatory activity in BALB/c mouse model of LPS-induced ALI assessed as reduction in LPS-induced TNFalpha in plasma at 10 mg/kg dosed via intranasal insuffIation pre-treated 2 hrs before LPS stimulation for 16 hrs; format: functional, organism-based; settings: time 18.0 hrs
Mus musculus [25] = assay: Anti-inflammatory activity in BALB/c mouse model of LPS-induced ALI assessed as reduction in lung wet-to-dry ratios at 10 mg/kg dosed via intranasal insuffIation pre-treated 2 hrs before LPS stimulation for 16 hrs; format: functional, organism-based; settings: time 18.0 hrs
Mus musculus [26] = assay: Anti-inflammatory activity in BALB/c mouse model of LPS-induced ALI assessed as reduction in number of neutrophils BALF at 10 mg/kg dosed via intranasal insuffIation pre-treated 2 hrs before LPS stimulation for 16 hrs; format: functional, organism-based; settings: time 18.0 hrs
[27] = Toxicity in C57BL/6 mouse assessed as effect on physical appearance at 50 mg/kg, ip; format: organism-based; settings: in vivo
[28] = Toxicity in C57BL/6 mouse assessed as effect on body temperature at 50 mg/kg, ip; format: organism-based; settings: in vivo
[29] = Toxicity in C57BL/6 mouse assessed as effect on self grooming at 50 mg/kg, ip; format: organism-based; settings: in vivo
[30] = Toxicity in C57BL/6 mouse assessed as effect on respiratory function measured by pulmonary arterial oxygen saturation at 50 mg/kg, ip; format: organism-based; settings: in vivo
[31] = Toxicity in C57BL/6 mouse assessed as induction of body weight loss at 50 mg/kg, ip measured during 1 weeks; format: organism-based; settings: in vivo, 168 h
[32] = Toxicity in C57BL/6 mouse assessed as efect on animal growth rates at 50 mg/kg, ip measured during 1 weeks; format: organism-based; settings: in vivo, 168 h
[33] = Toxicity in C57BL/6 mouse assessed as induction of body weight loss at 10 mg/kg dosed via intranasal insuffIation measured during 1 weeks; format: organism-based; settings: in vivo, inhaled_or_intranasal, 168 h
[34] = Toxicity in C57BL/6 mouse assessed as effect on animal growth rates at 10 mg/kg dosed via intranasal insuffIation measured during 1 weeks; format: organism-based; settings: in vivo, inhaled_or_intranasal, 168 h
[35] = Toxicity in mouse lung macrophages cells assessed as reduction in cell viability up to 25 uM incubated for 72 hrs by MTT assay; format: tissue-based; settings: macrophage
Macrophage [36] = assay: Inhibition of calcineurin-NFATc3 interaction in mouse bone marrow-derived macrophages assessed as reduction in LPS-induced NFATc3 nuclear translocation at 1 uM pre-incubated before LPS stimulation for 1 hr using biotinylated compound by immunofluorescence staining assay

CC[C@H](C)[C@H](NC(=O)[C@@H](NC(=O)c1cccc(Cl)c1Cl)C(C)(C)C)C(=O)N[C@H](C(=O)N[C@H](C(=O)N[C@H](C(=O)N[C@@H](CCC(N)=O)C(=O)N[C@@H](Cc1cnc[nH]1)C(=O)N[C@@H](CC(C)C)C(=O)N[C@@H](CO)C(=O)NCCC(=O)N[C@@H](CCCCNC(=O)CC[C@@H]1NC(=O)[C@@H](CCCNC(=N)N)NC(=O)[C@H](CCCNC(=N)N)NC(=O)[C@@H](CCCNC(=N)N)NC(=O)[C@H](CCCNC(=N)N)NC(=O)[C@H](Cc2ccc3ccccc3c2)NC(=O)[C@@H](Cc2ccccc2)NC1=O)C(N)=O)[C@H](C)O)[C@@H](C)CC)C(C)(C)C
inactive: Activity (Mus musculus [14]) | Activity (Mus musculus [15]) | Activity (Mus musculus [16]) | Activity (Mus musculus [17]) | Activity (Mus musculus [18]) | Activity (Mus musculus [19]) | Activity (Mus musculus [20])
Active: Drug uptake [5]
7.12: pKd [1]
< 10%: metabolised at 24 h, 5 µM [3]
Not Active: Drug uptake [10] | Drug uptake [11]
active: inhibition (Homo sapiens) Dose-dependent effect | inhibition (Macrophage [6]; DISRUPTING AGENT) Dose-dependent effect | inhibition (Macrophage [7]; DISRUPTING AGENT) Dose-dependent effect | Activity (Mus musculus [21]) | Activity (Mus musculus [22]) | Activity (Mus musculus [23]) | Activity (Mus musculus [24]) | Activity (Mus musculus [25]) | Activity (Mus musculus [26]) | inhibition (Macrophage [36])
6.20: pIC50 [2]
≥ 100 µM: solubility kinetic at 1 h [4]
17%: inhibition (Macrophage [6])
80%: Drug uptake [9]
Non-Toxic: Activity (HeLa) | Activity (NCI-H441) | Activity [12] | Activity [13] | Activity [27] | Activity [28] | Activity [29] | Activity [30] | Activity [31] | Activity [32] | Activity [33] | Activity [34] | Activity [35]
2 h: Tmax [8]
22%: inhibition (Macrophage [7])
